Assay results from the kinase profiling compilation of Christmann-Franck et al. (2016).

Tests used:
EIF2AK3 (human) = EIF2AK3 (human) (UniProt Q9NZJ5); assay: IMAP-FP
EIF2AK2 (human) = EIF2AK2 (human) (UniProt P19525); assay: IMAP-FP
PLK2 (human) = PLK2 (human) (UniProt Q9NYY3); assay: IMAP-FP
PKN1 (human) = PKN1 (human) (UniProt Q16512); assay: IMAP-FP
SRPK1 (human) = SRPK1 (human) (UniProt Q96SB4); assay: IMAP-FP; conditions: compound 0.2 µM
MST1R (human) = MST1R (human) (UniProt Q04912); assay: Caliper, Mobility shift assay off-chip
MST1R (human), sequence (Q04912 whole entry, looked up): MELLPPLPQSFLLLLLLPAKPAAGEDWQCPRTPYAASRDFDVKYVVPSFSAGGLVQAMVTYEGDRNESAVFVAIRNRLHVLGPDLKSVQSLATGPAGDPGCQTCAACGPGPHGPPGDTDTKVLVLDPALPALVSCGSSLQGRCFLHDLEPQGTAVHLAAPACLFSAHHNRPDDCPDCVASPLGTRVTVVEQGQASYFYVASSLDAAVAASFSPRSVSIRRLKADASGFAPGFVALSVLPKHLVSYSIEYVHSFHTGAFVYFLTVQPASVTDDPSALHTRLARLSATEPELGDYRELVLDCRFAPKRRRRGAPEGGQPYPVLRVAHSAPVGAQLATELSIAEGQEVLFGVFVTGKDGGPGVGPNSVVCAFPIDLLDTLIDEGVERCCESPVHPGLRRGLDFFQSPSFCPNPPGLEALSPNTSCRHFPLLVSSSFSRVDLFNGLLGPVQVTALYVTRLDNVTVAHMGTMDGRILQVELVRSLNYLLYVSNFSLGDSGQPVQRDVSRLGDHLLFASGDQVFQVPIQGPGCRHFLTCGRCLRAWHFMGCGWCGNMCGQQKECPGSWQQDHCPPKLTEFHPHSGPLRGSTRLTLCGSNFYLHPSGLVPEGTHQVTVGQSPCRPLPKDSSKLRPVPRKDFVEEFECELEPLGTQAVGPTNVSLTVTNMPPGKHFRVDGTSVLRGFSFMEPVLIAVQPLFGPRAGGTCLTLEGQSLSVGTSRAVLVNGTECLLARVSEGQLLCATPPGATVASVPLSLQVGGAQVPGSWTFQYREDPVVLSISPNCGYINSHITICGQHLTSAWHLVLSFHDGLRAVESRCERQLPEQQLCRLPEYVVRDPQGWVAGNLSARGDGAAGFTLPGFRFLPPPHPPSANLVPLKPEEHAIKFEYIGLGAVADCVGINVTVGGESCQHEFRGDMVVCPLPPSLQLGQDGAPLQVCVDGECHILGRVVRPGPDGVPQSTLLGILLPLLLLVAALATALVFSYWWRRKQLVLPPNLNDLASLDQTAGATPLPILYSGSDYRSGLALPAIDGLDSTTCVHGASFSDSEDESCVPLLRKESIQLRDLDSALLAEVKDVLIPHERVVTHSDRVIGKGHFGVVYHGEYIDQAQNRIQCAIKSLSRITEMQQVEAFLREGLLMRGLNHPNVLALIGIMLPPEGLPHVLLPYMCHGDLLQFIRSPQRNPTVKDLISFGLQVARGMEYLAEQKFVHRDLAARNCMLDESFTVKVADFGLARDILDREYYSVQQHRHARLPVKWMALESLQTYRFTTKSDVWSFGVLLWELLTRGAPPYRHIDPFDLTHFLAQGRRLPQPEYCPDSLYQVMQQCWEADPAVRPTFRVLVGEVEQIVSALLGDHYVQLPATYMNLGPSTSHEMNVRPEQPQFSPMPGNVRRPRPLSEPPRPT

CSNK2A1 (human) = CSNK2A1 (human) (UniProt P68400); assay: Caliper, Mobility shift assay off-chip
TSSK3 (human) = TSSK3 (human) (UniProt Q96PN8); assay: Caliper, Mobility shift assay off-chip
MAP4K4 (human) = MAP4K4 (human) (UniProt O95819); assay: Caliper, Mobility shift assay off-chip
ERBB4 (human) = ERBB4 (human) (UniProt Q15303); assay: Caliper, Mobility shift assay off-chip
AXL (human) = AXL (human) (UniProt P30530); assay: Caliper, Mobility shift assay off-chip
PRKCG (human) = PRKCG (human) (UniProt P05129); assay: Caliper, Mobility shift assay off-chip
DYRK3 (human) = DYRK3 (human) (UniProt O43781); assay: Caliper, Mobility shift assay off-chip
TNIK (human) = TNIK (human) (UniProt Q9UKE5); assay: Caliper, Mobility shift assay off-chip
PRKD2 (human) = PRKD2 (human) (UniProt Q9BZL6); assay: Caliper, Mobility shift assay off-chip
PRKCD (human) = PRKCD (human) (UniProt Q05655); assay: Caliper, Mobility shift assay off-chip
DDR2 (human) = DDR2 (human) (UniProt Q16832); assay: Caliper, Mobility shift assay off-chip
MARK1 (human) = MARK1 (human) (UniProt Q9P0L2); assay: Caliper, Mobility shift assay off-chip
RPS6KB2 (human) = RPS6KB2 (human) (UniProt Q9UBS0); assay: Caliper, Mobility shift assay off-chip
PASK (human) = PASK (human) (UniProt Q96RG2); assay: Caliper, Mobility shift assay off-chip
PRKCH (human) = PRKCH (human) (UniProt P24723); assay: Caliper, Mobility shift assay off-chip
ZAP70 (human) = ZAP70 (human) (UniProt P43403); assay: Caliper, Mobility shift assay off-chip
CDC42BPA (human) = CDC42BPA (human) (UniProt Q5VT25); assay: Caliper, Mobility shift assay off-chip
MAPK14 (human) = MAPK14 (human) (UniProt Q16539); assay: Caliper, Mobility shift assay off-chip
GSK3A (human) = GSK3A (human) (UniProt P49840); assay: Caliper, Mobility shift assay off-chip
MAPK8 (human) = MAPK8 (human) (UniProt P45983); assay: Caliper, Mobility shift assay off-chip
MAPK8 (human), sequence (P45983 whole entry, looked up): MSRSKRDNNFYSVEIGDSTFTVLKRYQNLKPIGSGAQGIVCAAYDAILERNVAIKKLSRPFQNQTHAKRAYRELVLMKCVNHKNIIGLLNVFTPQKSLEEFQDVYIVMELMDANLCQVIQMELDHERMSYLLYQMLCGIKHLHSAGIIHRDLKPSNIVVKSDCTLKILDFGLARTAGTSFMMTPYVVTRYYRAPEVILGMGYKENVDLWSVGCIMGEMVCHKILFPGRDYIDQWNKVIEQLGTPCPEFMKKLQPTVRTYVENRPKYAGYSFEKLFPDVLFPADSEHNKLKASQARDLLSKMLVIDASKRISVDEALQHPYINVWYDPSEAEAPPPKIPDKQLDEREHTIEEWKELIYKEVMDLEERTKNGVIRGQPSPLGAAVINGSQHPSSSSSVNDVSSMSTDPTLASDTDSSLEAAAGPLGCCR

CDK6 (human) = CDK6 (human) (UniProt Q00534); assay: Caliper, Mobility shift assay off-chip
SRPK2 (human) = SRPK2 (human) (UniProt P78362); assay: Caliper, Mobility shift assay off-chip
PRKAA2 (human) = PRKAA2 (human) (UniProt P54646); assay: Caliper, Mobility shift assay off-chip
ALK EML4 (human) = ALK EML4 (human) (UniProt Q9HC35+Q9UM73); assay: Caliper, Mobility shift assay off-chip
ALK EML4 (human), sequence (Q9HC35 whole entry, looked up): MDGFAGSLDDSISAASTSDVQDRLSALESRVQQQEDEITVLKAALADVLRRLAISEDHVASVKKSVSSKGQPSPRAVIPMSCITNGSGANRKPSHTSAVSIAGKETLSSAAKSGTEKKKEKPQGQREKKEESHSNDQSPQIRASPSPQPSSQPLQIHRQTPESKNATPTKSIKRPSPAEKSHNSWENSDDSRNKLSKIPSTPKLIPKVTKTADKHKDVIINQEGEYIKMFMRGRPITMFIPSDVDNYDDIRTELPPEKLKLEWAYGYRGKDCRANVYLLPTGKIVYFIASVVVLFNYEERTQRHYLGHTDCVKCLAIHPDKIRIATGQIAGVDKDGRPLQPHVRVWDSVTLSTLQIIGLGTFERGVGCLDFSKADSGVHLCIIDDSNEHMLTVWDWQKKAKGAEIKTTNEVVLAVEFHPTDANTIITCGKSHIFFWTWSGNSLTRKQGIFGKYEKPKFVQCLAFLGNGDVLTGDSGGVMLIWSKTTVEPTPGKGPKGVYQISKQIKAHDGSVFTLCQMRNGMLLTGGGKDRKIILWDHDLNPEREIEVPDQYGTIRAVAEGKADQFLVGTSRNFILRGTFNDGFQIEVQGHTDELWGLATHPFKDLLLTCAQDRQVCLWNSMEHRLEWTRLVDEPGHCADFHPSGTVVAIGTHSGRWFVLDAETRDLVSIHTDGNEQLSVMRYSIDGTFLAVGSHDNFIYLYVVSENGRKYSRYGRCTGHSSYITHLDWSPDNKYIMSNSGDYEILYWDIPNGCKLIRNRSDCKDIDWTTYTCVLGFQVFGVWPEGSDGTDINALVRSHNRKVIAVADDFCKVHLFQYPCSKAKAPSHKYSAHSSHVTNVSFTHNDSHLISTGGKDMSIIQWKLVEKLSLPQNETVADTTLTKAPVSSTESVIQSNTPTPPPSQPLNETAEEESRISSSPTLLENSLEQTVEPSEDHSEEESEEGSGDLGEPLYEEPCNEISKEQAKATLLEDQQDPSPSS
ALK EML4 (human), sequence (Q9UM73 whole entry, looked up): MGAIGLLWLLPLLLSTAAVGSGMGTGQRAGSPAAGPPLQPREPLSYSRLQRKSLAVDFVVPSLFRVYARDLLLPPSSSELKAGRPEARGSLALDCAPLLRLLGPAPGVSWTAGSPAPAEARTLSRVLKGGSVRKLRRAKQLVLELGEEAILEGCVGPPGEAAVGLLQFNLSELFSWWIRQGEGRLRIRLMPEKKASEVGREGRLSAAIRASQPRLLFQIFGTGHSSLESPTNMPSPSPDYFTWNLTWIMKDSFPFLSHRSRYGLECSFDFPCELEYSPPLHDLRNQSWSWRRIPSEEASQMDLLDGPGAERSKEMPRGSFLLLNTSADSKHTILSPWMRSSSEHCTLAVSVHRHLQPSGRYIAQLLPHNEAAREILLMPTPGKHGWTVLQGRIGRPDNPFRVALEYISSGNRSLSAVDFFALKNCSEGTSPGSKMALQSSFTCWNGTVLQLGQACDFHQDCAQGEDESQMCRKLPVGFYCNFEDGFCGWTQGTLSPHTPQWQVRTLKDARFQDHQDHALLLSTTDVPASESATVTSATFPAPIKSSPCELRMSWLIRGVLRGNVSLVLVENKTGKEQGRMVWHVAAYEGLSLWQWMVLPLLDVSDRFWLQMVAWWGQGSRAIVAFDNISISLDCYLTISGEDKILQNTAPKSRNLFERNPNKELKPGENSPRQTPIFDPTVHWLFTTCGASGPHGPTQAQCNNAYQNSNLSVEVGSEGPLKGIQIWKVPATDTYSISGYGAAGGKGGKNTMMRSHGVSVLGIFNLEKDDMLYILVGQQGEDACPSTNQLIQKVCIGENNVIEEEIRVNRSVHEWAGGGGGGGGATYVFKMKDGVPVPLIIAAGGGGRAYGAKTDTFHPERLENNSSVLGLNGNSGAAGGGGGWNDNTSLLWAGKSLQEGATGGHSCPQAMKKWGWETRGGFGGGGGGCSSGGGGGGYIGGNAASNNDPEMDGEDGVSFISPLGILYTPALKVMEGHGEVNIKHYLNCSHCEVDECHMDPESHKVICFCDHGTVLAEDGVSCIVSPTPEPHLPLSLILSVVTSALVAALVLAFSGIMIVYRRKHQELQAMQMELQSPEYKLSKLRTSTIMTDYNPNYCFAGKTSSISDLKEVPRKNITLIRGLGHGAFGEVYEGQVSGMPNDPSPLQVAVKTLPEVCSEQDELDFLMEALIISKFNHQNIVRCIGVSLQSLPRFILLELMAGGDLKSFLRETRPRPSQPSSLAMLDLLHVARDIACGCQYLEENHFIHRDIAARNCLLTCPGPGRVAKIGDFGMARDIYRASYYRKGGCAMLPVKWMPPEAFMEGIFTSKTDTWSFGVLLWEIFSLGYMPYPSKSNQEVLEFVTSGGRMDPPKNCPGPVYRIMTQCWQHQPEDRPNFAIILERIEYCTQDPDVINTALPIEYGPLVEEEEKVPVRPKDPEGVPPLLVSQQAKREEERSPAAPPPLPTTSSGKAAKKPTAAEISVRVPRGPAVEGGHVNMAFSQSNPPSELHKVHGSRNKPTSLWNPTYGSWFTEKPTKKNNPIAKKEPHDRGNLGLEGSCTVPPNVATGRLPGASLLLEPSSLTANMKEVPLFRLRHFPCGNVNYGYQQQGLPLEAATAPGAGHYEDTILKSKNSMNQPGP

RPS6KA2 KD1 KD2 (human) = RPS6KA2 KD1 KD2 (human) (UniProt Q15349); assay: Caliper, Mobility shift assay off-chip
AKT3 (human) = AKT3 (human) (UniProt Q9Y243); assay: Caliper, Mobility shift assay off-chip
PDPK1 (human) = PDPK1 (human) (UniProt O15530); assay: Caliper, Mobility shift assay off-chip
LTK (human) = LTK (human) (UniProt P29376); assay: Caliper, Mobility shift assay off-chip

For `COc1cc2c(Oc3ccc4[nH]c(C)cc4c3F)ncnc2cc1OCCCN1CCCC1`, the inhibition (EIF2AK3 (human); compound 0.02 µM) was -18%, the inhibition (EIF2AK3 (human); compound 0.2 µM) was -16.8% and the inhibition (EIF2AK2 (human); compound 0.02 µM) was -13.8%. For the same compound, the inhibition (EIF2AK2 (human); compound 0.2 µM) was -6.6%, the inhibition (PLK2 (human); compound 0.02 µM) was -0.9% and the inhibition (PLK2 (human); compound 0.2 µM) was -1.6%. It also gave an inhibition (PKN1 (human); compound 0.02 µM) of -35.8%, an inhibition (PKN1 (human); compound 0.2 µM) of -32.5% and an inhibition (SRPK1 (human)) of -5.6%. The inhibition (MST1R (human); compound 0.02 µM) was 4.9%, the inhibition (MST1R (human); compound 0.2 µM) was 10.8% and the inhibition (CSNK2A1 (human); compound 0.02 µM) was -0.1%. It also gave an inhibition (CSNK2A1 (human); compound 0.2 µM) of -0.5%, an inhibition (TSSK3 (human); compound 0.02 µM) of 0.6% and an inhibition (TSSK3 (human); compound 0.2 µM) of 12.5%. For the same compound, the inhibition (MAP4K4 (human); compound 0.02 µM) was -0.2%, the inhibition (MAP4K4 (human); compound 0.2 µM) was 15.5% and the inhibition (ERBB4 (human); compound 0.02 µM) was 17.2%. For the same compound, the inhibition (ERBB4 (human); compound 0.2 µM) was 49.8%, the inhibition (AXL (human); compound 0.02 µM) was 6.9% and the inhibition (AXL (human); compound 0.2 µM) was 17.7%. For the same compound, the inhibition (PRKCG (human); compound 0.02 µM) was 3.8%, the inhibition (PRKCG (human); compound 0.2 µM) was 4.1% and the inhibition (DYRK3 (human); compound 0.02 µM) was -7.2%. For the same compound, the inhibition (DYRK3 (human); compound 0.2 µM) was -7.9%, the inhibition (TNIK (human); compound 0.02 µM) was -0.5% and the inhibition (TNIK (human); compound 0.2 µM) was 24.9%. It also gave an inhibition (PRKD2 (human); compound 0.02 µM) of -0.3%, an inhibition (PRKD2 (human); compound 0.2 µM) of -1.5% and an inhibition (PRKCD (human); compound 0.02 µM) of 11.1%. For the same compound, the inhibition (PRKCD (human); compound 0.2 µM) was -2.2%, the inhibition (DDR2 (human); compound 0.02 µM) was 26.6% and the inhibition (DDR2 (human); compound 0.2 µM) was 82.1%. It also gave an inhibition (MARK1 (human); compound 0.02 µM) of -2.2%, an inhibition (MARK1 (human); compound 0.2 µM) of 2.7% and an inhibition (RPS6KB2 (human); compound 0.02 µM) of 1%. The inhibition (RPS6KB2 (human); compound 0.2 µM) was 0.6%, the inhibition (PASK (human); compound 0.02 µM) was -4.3% and the inhibition (PASK (human); compound 0.2 µM) was 0.3%. The inhibition (PRKCH (human); compound 0.02 µM) was 6%, the inhibition (PRKCH (human); compound 0.2 µM) was 4.7% and the inhibition (ZAP70 (human); compound 0.02 µM) was 3.1%. It also gave an inhibition (ZAP70 (human); compound 0.2 µM) of 3.4%, an inhibition (CDC42BPA (human); compound 0.02 µM) of 3.4% and an inhibition (CDC42BPA (human); compound 0.2 µM) of 14.9%. The inhibition (MAPK14 (human); compound 0.02 µM) was -4.9%, the inhibition (MAPK14 (human); compound 0.2 µM) was -4.9% and the inhibition (GSK3A (human); compound 0.02 µM) was 3.5%. The inhibition (GSK3A (human); compound 0.2 µM) was 2.1%, the inhibition (MAPK8 (human); compound 0.02 µM) was -2.8% and the inhibition (MAPK8 (human); compound 0.2 µM) was -2.5%. The inhibition (CDK6 (human); compound 0.02 µM) was 11.4%, the inhibition (CDK6 (human); compound 0.2 µM) was 4.1% and the inhibition (SRPK2 (human); compound 0.02 µM) was -7.9%. The inhibition (SRPK2 (human); compound 0.2 µM) was -5.3%, the inhibition (PRKAA2 (human); compound 0.02 µM) was 5.1% and the inhibition (PRKAA2 (human); compound 0.2 µM) was 6%. The inhibition (ALK EML4 (human); compound 0.02 µM) was -1.4%, the inhibition (ALK EML4 (human); compound 0.2 µM) was 0.1% and the inhibition (RPS6KA2 KD1 KD2 (human); compound 0.02 µM) was 3.9%. It also gave an inhibition (RPS6KA2 KD1 KD2 (human); compound 0.2 µM) of 2.2%, an inhibition (AKT3 (human); compound 0.02 µM) of -3.5% and an inhibition (AKT3 (human); compound 0.2 µM) of -4.2%. For the same compound, the inhibition (PDPK1 (human); compound 0.02 µM) was -2.1%, the inhibition (PDPK1 (human); compound 0.2 µM) was -4.8% and the inhibition (LTK (human); compound 0.02 µM) was 4.7%. It also gave an inhibition (LTK (human); compound 0.2 µM) of 5.6%.
